Drawing on US20240262822A1, “WDR5 INHIBITORS AND MODULATORS” (Vanderbilt University, priority 2021, published 2024), this text covers Ki and GI50 for twelve compounds.

One assay has as its target T1, WDR5 (Homo sapiens, UniProt P61964).
T1 construct: WDR5-His Tag (A23, residues 24-334) is expressed and purified in our lab; made in house
In words: Time Resolved-Fluorescence Energy Transfer (TR-FRET) competition assay, displacement of 10mer-Thr-FAM probe from His-tagged WDR5. As to conditions: WDR5-His tag 2 nM, 10mer-Thr-FAM 150 nM, 60 minutes at room temperature. The assay is classed as binding. The method in brief: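 Competitive TR-FRET using 2 nM His-tagged WDR5 (residues 24-334), 1 nM Tb-anti-His antibody and 150 nM 10mer-Thr-FAM probe; compounds in a 10-point, 5-fold series from 5 μM, ≤1% DMSO. Incubated 60 min at room temperature in PBS with 300 mM NaCl, 0.5 mM TCEP, 0.1% CHAPS, pH 7.2; 520/495 nm emission gave IC50, converted to Ki by the Wang equation.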

Assay [1] deals with MV4:11 human cancer cell lines. The assay is described as follows: Cellular viability / anti-proliferative activity, CellTiter-Glo, 5 day protocol. It counts as cell-based. To be noted: 5 day incubation. The method, boiled down: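 MV-4-11 cells in IMDM/10% FBS, 200 cells per well, exposed to 22-point 2-fold dilutions from 30 μM top (0.3% DMSO) for 5 days. Viability by CellTiter-Glo luminescence; GI50 from sigmoidal dose-response fit, mean of at least two replicates.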

The mark [2] stands for this setting: read-out: Ki for Exemplified Compounds for Inhibition of WDR5 by TR-FRET assay.
[3] abbreviates: Homo sapiens, MV4-11, 120 h, MV4:11 cells, read-out: GI50 for representative compounds on cellular proliferation of MV4:11 human cancer cell lines.
[4] abbreviates: read-out: Ki for additional WDR5 inhibitor compounds for Inhibition of WDR5 by TR-FRET assay.
[5] abbreviates: Homo sapiens, MV4-11, 120 h, MV4;11 cells, read-out: GI50 for additional WDR5 inhibitor compounds on cellular proliferation of MV4;11 human cancer cell lines.

Read-outs that look alike come from different tables or passages of the source. Where only a bound is given, the exact number is not on record here.

One may read the Ki as the equilibrium dissociation constant of an inhibitor or competing ligand from its target. `CCc1cc2c(N3CCc4c(cc(Cn5ccnc5C)cc4-c4cn(C)nc4C(F)(F)F)C3=O)ccnc2c(OC)n1` [Example 10, 2-(6-Ethyl-8-methoxy-1,7-naphthyridin-4-yl)-7-((2-methyl-1H-imidazol-1-yl)methyl)-5-(1-methyl-3-(trifluoromethyl)-1H-pyrazol-4-yl)-3,4-dihydroisoquinolin-1(2H)-one]: the Ki on WDR5 (setting [2]) is under 0.02 nM. Moreover, the GI50 in assay [1] (setting [3]) was under 20 nM.
For the compound `CCc1cc2c(N3CCc4c(cc(Cn5ccnc5)cc4-c4cn(C)nc4C(F)(F)F)C3=O)ccnc2c(N2CCOCC2)n1` [Example 44, 7-((1H-Imidazol-1-yl)methyl)-2-(6-ethyl-8-morpholino-1,7-naphthyridin-4-yl)-5-(1-methyl-3-(trifluoromethyl)-1H-pyrazol-4-yl)-3,4-dihydroisoquinolin-1(2H)-one], the Ki at WDR5 (setting [2]) was under 0.02 nM. Also, the GI50 in assay [1] (setting [3]) was under 20 nM.
Take `CCc1cc2c(N3CCc4c(cc(Cn5ccnc5)cc4-n4nc(C)cc4C(F)(F)F)C3=O)ccnc2c(OC)n1` [Example 47, 7-((1H-Imidazol-1-yl)methyl)-2-(6-ethyl-8-methoxy-1,7-naphthyridin-4-yl)-5-(3-methyl-5-(trifluoromethyl)-1H-pyrazol-1-yl)-3,4-dihydroisoquinolin-1(2H)-one]: the Ki on WDR5 (setting [2]) came to 0.024 nM. In addition, the GI50 in assay [1] (setting [3]) was 296 nM.
Take `COc1cc2nc(C)nc(N3CCc4c(cc(Cn5ccnc5)cc4-c4cc(C)nn4C)C3=O)c2cc1OC` [Example 59, 7-((1H-Imidazol-1-yl)methyl)-2-(6,7-dimethoxy-2-methylquinazolin-4-yl)-5-(1,3-dimethyl-1H-pyrazol-5-yl)-3,4-dihydroisoquinolin-1(2H)-one]: on WDR5 (setting [2]), the Ki was under 0.02 nM. The GI50 in assay [1] (setting [3]) was 90 nM.
As to `COc1cc2nc(C)nc(N3CCc4c(cc(Cn5ccnc5)cc4-c4ccc(F)cc4C)C3=O)c2cc1OC` [Example 66, 7-((1H-Imidazol-1-yl)methyl)-2-(6,7-dimethoxy-2-methylquinazolin-4-yl)-5-(4-fluoro-2-methylphenyl)-3,4-dihydroisoquinolin-1(2H)-one], the Ki on WDR5 (setting [2]) was determined as 0.02 nM. In addition, the GI50 in assay [1] (setting [3]) was found to be 38 nM.
For `CCOc1nc(CC)cc2c(N3CCc4c(cc(Cn5ccnc5)cc4-c4cn(C)nc4C(F)(F)F)C3=O)ccnc12` [Example 36, 7-((1H-Imidazol-1-yl)methyl)-2-(8-ethoxy-6-ethyl-1,7-naphthyridin-4-yl)-5-(1-methyl-3-(trifluoromethyl)-1H-pyrazol-4-yl)-3,4-dihydroisoquinolin-1(2H)-one], at WDR5 (setting [2]), the Ki is under 0.02 nM. The GI50 in assay [1] (setting [3]) was under 20 nM.
For the compound `COc1cc(N2C[C@H]3CN(C)C[C@H]3C2)c2nc(C)cc(N3CCc4c(cc(Cn5ccnc5)cc4-c4cn(C)nc4C(F)(F)F)C3=O)c2c1` [Compound B-197], on WDR5 (setting [4]), the Ki was determined as 0.02 nM. In addition, the GI50 in assay [1] (setting [5]) is under 20 nM.
For `COc1cc(C(=O)Nc2cn[nH]c2)c2nc(C)cc(N3CCc4c(cc(Cn5ccnc5)cc4-c4cn(C)nc4C(F)(F)F)C3=O)c2c1` [Compound B-201], in that order: 0.023 nM and 23 nM.
For `CCc1nc(N2CCc3c(cc(Cn4ccnc4)cc3-c3cn(C)nc3C(F)(F)F)C2=O)c2cc(OC)c(OC)cc2n1` [Example 63, 7-((1H-Imidazol-1-yl)methyl)-2-(2-ethyl-6,7-dimethoxyquinazolin-4-yl)-5-(1-methyl-3-(trifluoromethyl)-1H-pyrazol-4-yl)-3,4-dihydroisoquinolin-1(2H)-one], the Ki on WDR5 (setting [2]) was under 0.02 nM. Also, the GI50 in assay [1] (setting [3]) was under 20 nM.
For the compound `CCc1cc(C(=O)NC2CN(C(=O)c3ccncc3)C2)c2nccc(N3CCc4c(cc(Cn5ccnc5)cc4-c4cn(C)nc4C(F)(F)F)C3=O)c2c1` [Compound B-242], the Ki at WDR5 (setting [4]) is under 0.02 nM. Also, the GI50 in assay [1] (MV4;11 cells, read-out: GI50 for additional WDR5 inhibitor compounds on cellular proliferation of MV4;11 human cancer cell lines) came out at 29 nM.
Take `CCc1cc2c(N3CCc4c(cc(Cn5ccnc5)cc4-c4cn(C)nc4C(F)(F)F)C3=O)ccnc2c(OCCOC)n1` [Example 33, 7-((1H-Imidazol-1-yl)methyl)-2-(6-ethyl-8-(2-methoxyethoxy)-1,7-naphthyridin-4-yl)-5-(1-methyl-3-(trifluoromethyl)-1H-pyrazol-4-yl)-3,4-dihydroisoquinolin-1(2H)-one]: on WDR5 (setting [2]), the Ki was under 0.02 nM. In addition, in assay [1] (setting [3]), the GI50 is under 20 nM.
Take `CCc1cc2c(N3CCc4c(cc(Cn5ccnc5)cc4-c4cn(C)nc4C(F)(F)F)C3=O)ccnc2c(N2CCN(C)CC2)n1` [Example 46, 7-((1H-Imidazol-1-yl)methyl)-2-(6-ethyl-8-(4-methylpiperazin-1-yl)-1,7-naphthyridin-4-yl)-5-(1-methyl-3-(trifluoromethyl)-1H-pyrazol-4-yl)-3,4-dihydroisoquinolin-1(2H)-one]: the Ki at WDR5 (setting [2]) was under 0.02 nM. The GI50 in assay [1] (setting [3]) was under 20 nM.
